Test results from patent publication US6894185B2, “Substituted chiral allosteric hemoglobin modifiers” (Allós Therapeutics, Inc., priority 1999, dated 2005).
Values joined by “and” are separate entries in the source; they are usually repeats but may differ in a detail not shown here. Equal entries are not always repeated.

Experiments:
[1] = target: T1, purified stripped human adult hemoglobin (Homo sapiens, UniProt P68871+P69905); assay: Hemoglobin solution oxygen equilibrium studies (HEMOX-analyzer); type: biochemical; details: for n50 (Hill coefficient at 50% saturation): n50 control 2.7; for P50e/P50c: ratio to P50 control with no effector (5.0 mmHg)
T1 construct: using purified stripped human adult hemoglobin as described previously; from tissue
Method: Structure-allosteric activity relationships were determined from the synthetic chiral effectors comparing the shift in the oxygen binding curve of Hb solutions using a Hemox-Analyzer. In vitro biological activity testing in the presence of plasma proteins was also performed on selected enantiomers and racemates (multi-point tonometry and blood gas analysis) to screen for candidates with potential clinical use. SAR studies compared the degree in shift in P50 values, i.e., the partial pressure of molecular oxygen necessary to half-saturate hemoglobin. An effector that decreases Hb oxygen affinity increases the P50 value relative to the control. Thus, the activity or potency of each analog could be expressed by the ratio P50 (effector)/P50(control). […] The slope of the log of the oxygen binding curves is known as the Hill coefficient. The Hill coefficient measures the degree of cooperativity in binding for an allosteric protein, the normal range for human blood is 2.7-3.2.
The effectors were prepared as 10 mM stock solutions in 100 mM NaCl bis-Tris buffer, pH 7.2. After the addition of an excess of NaHCO3, the solution was warmed to 60° C. and stirred for several hours. The solutions were back titrated carefully to pH 7.2 at 25° C. prior to use. Oxygen equilibrium measurements were performed with the HEMOX-analyzer (TCS Medical products, Southampton, Pa.) using purified stripped human adult hemoglobin as described previously. 4 mL of buffer, 100 mM NaCl, 50 mM bis-Tris at pH 7.2, is added to a cuvette in the HEMOX, followed by 200 μL of the 10 mM effector stock solution. Hemoglobin is then added to achieve a final Hb concentration of […] on heme basis. Catalase (20 μg/mL) and 50 mM EDTA were added to limit oxidation of the hemes. […] The saturation of hemoglobin was determined spectrophotometrically with a dual wavelength spectrophotometer (577 nm and 586.2 nm). The solution was stirred constantly during the 45-60 min recordings. The P50 and n50 values were calculated by linear regression analysis from data points comprised between 40 and 60% oxygen saturation.

[2] = target: T2, hemoglobin (Homo sapiens, UniProt P68871+P69905); assay: In vitro whole blood studies (multi-point tonometry and blood gas analysis); type: cell-based; details: for Whole Blood Δp50 mm Hg: Table II; for ΔP50 ± S.D. (P50 effector − P50control) / P50e (P50 value in the presence of the effector): Table VI, 2.5 mM Hb, 5.0 mM effector; for P50e (P50 value in the presence of the effector): single runs, DMSO stock
T2 construct: The whole blood samples were collected in heparinized tubes from healthy volunteers; from tissue; host or cells: human whole blood (heparinized) from healthy volunteers
Method: Structure-allosteric activity relationships were determined from the synthetic chiral effectors comparing the shift in the oxygen binding curve of Hb solutions using a Hemox-Analyzer. In vitro biological activity testing in the presence of plasma proteins was also performed on selected enantiomers and racemates (multi-point tonometry and blood gas analysis) to screen for candidates with potential clinical use. SAR studies compared the degree in shift in P50 values, i.e., the partial pressure of molecular oxygen necessary to half-saturate hemoglobin. An effector that decreases Hb oxygen affinity increases the P50 value relative to the control. Thus, the activity or potency of each analog could be expressed by the ratio P50 (effector)/P50(control). Tables and II and III summarize the p50 values obtained using human whole blood, while Tables IV and V summarize the P50 and the Hill coefficient values (n50) at half-saturation obtained using Hemox-analyzer. The slope of the log of the oxygen binding curves is known as the Hill coefficient. The Hill coefficient measures the degree of cooperativity in binding for an allosteric protein, the normal range for human blood is 2.7-3.2. Table VI presents the results from the whole blood studies given as a ΔP50 and Hill coefficient (n50) values for the enantiomers and racemates.
The whole blood samples were collected in heparinized tubes from healthy volunteers and stored over ice. The sodium salts of the compounds were prepared as described earlier. A 200 mM stock solution of the effector was prepared in DMSO. A 5.0 mM test solution was prepared from 50 μL of the 200 mM test solution and 1950 μL of whole blood. The blood samples were incubated in IL 237 tonometers (Instrumentation Laboratories, Inc. Lexington, Mass.) for approximately 10-12 min at 37° C. and equilibrated at three separate concentrations of O2 (20%, 40%, and 60%). After equilibration at each concentration of O2, a sample was removed via syringe and aspirated into a IL 1420 Automated Blood Gas Analyzer (Instrumentation Laboratories, Inc. Lexington, Mass.) and a IL 482 and IL 682 Co-oximeter (Instrumentation Laboratories, Inc. Lexington, Mass.) to determine the pH, pCO2, pO2 and the hemoglobin oxygen saturation values (sO2), respectively. The measured values for pO2 and sO2 at each oxygen saturation level were then subjected to a non-linear regression analysis using the program Scientist (Micromath, Salt Lake City, Utah) to calculate the P50 and Hill coefficient values.

[3] = target: T1, purified stripped human adult hemoglobin; assay: Hemoglobin solution oxygen equilibrium studies (HEMOX-analyzer); type: biochemical; details: 0.5 mM effector, 100 mM bis-Tris buffer, pH 7.2
[4] = Table IV, 0.5 mM effector, pH 7.2
[5] = Table V resolved enantiomers, 0.5 mM effector, pH 7.2

T2 sequence (P69905 2-142 limits assumed): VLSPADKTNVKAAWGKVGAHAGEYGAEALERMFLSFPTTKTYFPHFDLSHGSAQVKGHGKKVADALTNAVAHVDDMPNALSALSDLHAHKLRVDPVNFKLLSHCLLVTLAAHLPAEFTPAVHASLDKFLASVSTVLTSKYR
T2 sequence (P68871 2-147 limits assumed): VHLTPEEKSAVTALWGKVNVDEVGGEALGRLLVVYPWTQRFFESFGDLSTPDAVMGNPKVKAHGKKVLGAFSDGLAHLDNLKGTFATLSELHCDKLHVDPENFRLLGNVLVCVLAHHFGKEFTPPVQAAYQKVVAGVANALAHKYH
T1 sequence (P69905 2-142 limits assumed): as the sequence (P69905 2-142 limits assumed) above
T1 sequence (P68871 2-147 limits assumed): as the sequence (P68871 2-147 limits assumed) above

| Structure (SMILES) | n50 (Hill coefficient at 50% saturation) [1, 4] | P50e/P50c [1, 4] | Whole Blood Δp50 mm Hg [2] | P50e (oxygen pressure at which Hb is 50% saturated with oxygen in the presence of the effector) ([3]; Table IV) | ΔP50 ± S.D. (P50 effector − P50control) [2] | P50e (P50 value in the presence of the effector) [2] | n50 (Hill coefficient at 50% saturation) [1, 5] | P50e/P50c ([1]; Table V resolved enantiomers) | P50e (oxygen pressure at which Hb is 50% saturated with oxygen in the presence of the effector) ([3]; Table V resolved enantiomers) |
| --- | --- | --- | --- | --- | --- | --- | --- | --- | --- |
| Cc1cc(C)cc(NC(=O)Cc2ccc(OC3(C(=O)O)CCC(C)C3)cc2)c1 (centres unmarked) [Compound 3] | 2.5 | 2.6 | 20.3 mm Hg | 13 mmHg | – | – | – | – | – |
| Cc1cc(C)cc(NC(=O)Cc2ccc(OC3(C(=O)O)CCCC(C)C3)cc2)c1 (centres unmarked) [Compound 11, 1-[4-[[(3,5-dimethylanilino)carbonyl]methyl]phenoxy]-3-methylcyclohexane carboxylic acid] | 2.5 | 2.1 | 16 mm Hg | 10 mmHg | – | – | – | – | – |
| Cc1cc(C)cc(NC(=O)Cc2ccc(OC3(C(=O)O)CCOC3C)cc2)c1 (centres unmarked) [Compound 2, 3-[4-[[(3,5-dimethylanifino)carbonyl]methyl]phenoxy]-2-methyltetrahydro-3-furan carboxylic acid] | 2.4 | 1.5 | 15.2 mm Hg | 7.6 mmHg | – | – | – | – | – |
| Cc1cc(C)cc(NC(=O)Cc2ccc(OC(C)(C)C(=O)O)cc2)c1 [RSR13, reference compound] | 2.3 | 4.7 | – | 23 mmHg | 45.2 ± 2.2 mmHg | 76.5 mmHg and 73.4 mmHg | – | – | – |
| Cc1cc(C)cc(NC(=O)Cc2ccc(OC3(C(=O)O)CCCC3C)cc2)c1 (racemic) [Compound 1, 1-[4-[[(3,5-dimethylanilino)carbonyl]methyl]phenoxy]-2-methylcyclopentane carboxylic acid] | 2.3 | 4.3 | 45.4 mm Hg | 22 mmHg | 40.1 ± 0.9 mmHg | 66 mmHg and 67.2 mmHg | – | – | – |
| CCCC(C)(Oc1ccc(CC(=O)Nc2cc(C)cc(C)c2)cc1)C(=O)O (centres unmarked) [Compound 6, 2-[4-[[(3,5-dimethylanilino)carbonyl]methyl]phenoxy]-2-methylpentanoic acid] | 2.7 | 2.3 | 25.6 mm Hg | 12 mmHg | – | – | – | – | – |
| Cc1cc(C)cc(NC(=O)Cc2ccc(OC(C)C(=O)O)cc2)c1 (racemic) [Compound 18, 2-[4-[[(3,5-dimethylanilino)carbonyl]methyl]phenoxy]-propionic acid] | 2.6 | 1.9 | – | 9.3 mmHg | 18.2 ± 2.6 mmHg | 47.2 mmHg and 43.5 mmHg | – | – | – |
| Cc1cc(C)cc(NC(=O)Cc2ccc(OC(C)C(=O)O)cc2)c1 (single isomer, unassigned; (+)) [(+) 18, (+)-2-[4-[[(3,5-dimethylanilino)carbonyl]methyl]phenoxy]-propionic acid] | – | – | – | – | 20.7 ± 0.7 mmHg | 47.4 mmHg and 48.7 mmHg | 2.6 | 2 | 9.8 mmHg |
| CCC(Oc1ccc(CC(=O)Nc2cc(C)cc(C)c2)cc1)C(=O)O (racemic) [Compound 20, 2-[4-[[(3,5-dimethylanilino)carbonyl]methyl]phenoxy]-butanoic acid] | 2.7 | 2.6 | – | 13 mmHg | – | – | – | – | – |
| Cc1cc(Cl)cc(NC(=O)Cc2ccc(OC3(C(=O)O)CCCC3C)cc2)c1 (centres unmarked) [Compound 8, 1-[4-[[(3-chloro-5-methylanilino)carbonyl]methyl]phenoxy]-2-methylcyclopentane carboxylic acid] | 2.4 | 4.4 | 25 mm Hg | 22 mmHg | – | – | – | – | – |
| CCC(Oc1ccc(CC(=O)Nc2cc(C)cc(C)c2)cc1)C(=O)O (single isomer, unassigned; (-)) [(−) 20] | – | – | – | – | – | – | 2.8 | 2 | 9.8 mmHg |
| Cc1cc(C)cc(NC(=O)Cc2ccc(OC(F)C(=O)O)cc2)c1 (centres unmarked) [Compound 19, 2-[4-[[3,5-dimethylanilino)carbonyl]methyl]phenoxy-2-fluoroacetic acid] | 2.5 | 1.2 | – | 5.9 mmHg | – | – | – | – | – |
| Cc1cc(Cl)cc(NC(=O)Cc2ccc(OC(C)(C)C(=O)O)cc2)c1 [KDD86, reference compound] | 2.4 | 4.4 | – | 21 mmHg | – | – | – | – | – |
| CC(C)(Oc1ccc(CC(=O)Nc2ccc3c(c2)CCC3)cc1)C(=O)O [RSR46, reference compound] | 2.6 | 3 | – | 15 mmHg | – | – | – | – | – |
| CCC(C)(Oc1ccc(CC(=O)Nc2cc(C)cc(C)c2)cc1)C(=O)O (centres unmarked) [Compound 21, 2-[4-[[(3,5-dimethylanilino)carbonyl]methyl]phenoxy]-2-methylbutanoic acid] | 2.4 | 2.7 | – | 13 mmHg | – | – | – | – | – |
| CCC(Oc1ccc(CC(=O)Nc2cc(C)cc(C)c2)cc1)C(=O)O (single isomer, unassigned; (+)) [(+) 20] | – | – | – | – | – | – | 2.7 | 3.6 | 18 mmHg |
